Data as given in US20040185460A1, “Novel mixed lineage kinase (7) (mlk7) polypeptide polynucleotides encoding the same and methods of use thereof” (priority 2001, published 2004).

Tested on: baculoviral human GST-MLK7KD and GST-MLK7KD/LZ
Conditions: data not shown; shows requirement for metal ions (Mg+2)

O=C(O)CN(CCN(CC(=O)O)CC(=O)O)CC(=O)O [EDTA] was tested, and the “activities of GST-MLK7KD and GST-MLK7KD/LZ” value was “inhibited”.
